Experiments:
Assay in all cases: relative viability (nuclei count vs DMSO), 5 days (fraction); higher = more cells survive
[1] = compound: COc1cc2nccc(Oc3ccc(NC(=O)C4(C(=O)Nc5ccc(F)cc5)CC4)cc3)c2cc1OC [Cabozantinib] + CS(=O)(=O)N1CCN(Cc2cc3nc(-c4cccc5[nH]ncc45)nc(N4CCOCC4)c3s2)CC1 [Pictilisib] (partner 1 µM)
Summary of the method: (§1)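 Lung cancer cell lines were pin-tool dosed in 1536-well plates on the day after seeding, with either a lone drug or a fixed anchor-drug dose plus five library-drug doses (not always all listed) in √10 steps. Nuclei were counted on 4× images after 5 days. Relative viability is the ratio of treated-well to vehicle-well nuclei counts, with each value a median of duplicate plates.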

[2] = compound: COc1cc2nccc(Oc3ccc(NC(=O)C4(C(=O)Nc5ccc(F)cc5)CC4)cc3)c2cc1OC [Cabozantinib] + C[C@]1(O)C[C@@H](c2nc(-c3ccc4ccc(-c5ccccc5)nc4c3)c3c(N)nccn32)C1 [Linsitinib] (partner 1 µM)
Summary of the method: as §1

Zosuquidar + Palbociclib = compound: O[C@@H](COc1cccc2ncccc12)CN1CCN([C@@H]2c3ccccc3[C@@H]3[C@H](c4ccccc42)C3(F)F)CC1 [Zosuquidar] + CC(=O)c1c(C)c2cnc(Nc3ccc(N4CCNCC4)cn3)nc2n(C2CCCC2)c1=O [Palbociclib] (partner 0.5 µM)
Summary of the method: as §1

Zosuquidar + Pemetrexed = compound: O[C@@H](COc1cccc2ncccc12)CN1CCN([C@@H]2c3ccccc3[C@@H]3[C@H](c4ccccc42)C3(F)F)CC1 [Zosuquidar] + Nc1nc2[nH]cc(CCc3ccc(C(=O)N[C@@H](CCC(=O)O)C(=O)O)cc3)c2c(=O)[nH]1 [Pemetrexed] (partner 0.2 µM)
Summary of the method: as §1

| Cell Line | relative viability ([1]; first compound 0.02 µM) | relative viability ([1]; first compound 0.06325 µM) | relative viability ([1]; first compound 0.6325 µM) | relative viability ([1]; first compound 2 µM) | relative viability ([2]; first compound 0.02 µM) | relative viability ([2]; first compound 0.06325 µM) | relative viability ([2]; first compound 0.6325 µM) | relative viability ([2]; first compound 2 µM) | relative viability (Zosuquidar + Palbociclib; first compound 0.01 µM) | relative viability (Zosuquidar + Palbociclib; first compound 0.03162 µM) | relative viability (Zosuquidar + Palbociclib; first compound 0.1 µM) | relative viability (Zosuquidar + Palbociclib; first compound 0.3162 µM) | relative viability (Zosuquidar + Palbociclib; first compound 1 µM) | relative viability (Zosuquidar + Pemetrexed; first compound 0.01 µM) | relative viability (Zosuquidar + Pemetrexed; first compound 0.03162 µM) | relative viability (Zosuquidar + Pemetrexed; first compound 0.1 µM) | relative viability (Zosuquidar + Pemetrexed; first compound 0.3162 µM) | relative viability (Zosuquidar + Pemetrexed; first compound 1 µM) | relative viability ([1]; first compound 0.2 µM) | relative viability ([2]; first compound 0.2 µM) |
| --- | --- | --- | --- | --- | --- | --- | --- | --- | --- | --- | --- | --- | --- | --- | --- | --- | --- | --- | --- | --- |
| PC-3 [JPC-3] | 0.723 | 0.926 | 0.806 | 0.774 | 0.971 | 0.993 | 1 | 0.902 | 0.554 | 0.52 | 0.542 | 0.507 | 0.473 | 1.34 | 1.04 | 0.873 | 1.1 | 0.366 | – | – |
| HARA | 0.315 | 0.417 | 0.474 | 0.429 | 1.03 | 1.06 | 0.994 | 0.986 | 0.324 | 0.18 | 0.304 | 0.245 | 0.299 | 0.259 | 0.234 | 0.247 | 0.31 | 0.277 | 0.508 | 0.874 |
| NCI-H2347 | 0.893 | 0.726 | 0.497 | 0.592 | 0.967 | 0.961 | 0.846 | 0.81 | 0.403 | 0.466 | 0.432 | 0.413 | 0.43 | 0.425 | 0.34 | 0.413 | 0.432 | 0.483 | 0.897 | 0.992 |
| LOU-NH91 | 0.494 | 0.541 | 0.485 | 0.513 | 0.928 | 1.09 | 0.939 | 0.95 | 0.488 | 0.539 | 0.529 | 0.552 | 0.499 | 0.409 | 0.411 | 0.448 | 0.423 | 0.396 | 0.476 | 0.537 |
| LC-2-ad | 0.31 | 0.402 | 0.319 | 0.177 | 0.846 | 0.795 | 0.56 | 0.461 | 0.468 | 0.465 | 0.492 | 0.493 | 0.486 | 0.255 | 0.276 | 0.296 | 0.31 | 0.282 | 0.279 | 0.659 |
| LCLC-97TM1 | – | 0.2 | 0.296 | 0.32 | – | 0.187 | 0.195 | 0.204 | 0.227 | 0.274 | – | 0.193 | 0.215 | 0.192 | 0.191 | – | 0.158 | 0.183 | 0.152 | 0.2 |
| EKVX | 0.483 | 0.448 | 0.418 | 0.367 | 0.955 | 1.11 | 0.989 | 1.09 | 0.377 | 0.39 | – | 0.411 | 0.375 | 0.373 | 0.392 | – | 0.435 | 0.444 | 0.344 | 0.806 |
| NCI-H441 | 0.459 | 0.512 | 0.581 | 0.404 | 0.53 | 0.721 | 0.46 | 0.418 | 0.239 | 0.223 | 0.216 | 0.281 | 0.242 | 0.29 | 0.286 | 0.249 | 0.23 | 0.268 | 0.49 | 0.686 |
| HCC-827 | 1.08 | 0.991 | 0.907 | 0.816 | 0.945 | 1.02 | 1.03 | 0.972 | 0.503 | 0.497 | 0.501 | 0.498 | 0.491 | 0.237 | 0.272 | 0.255 | 0.263 | 0.279 | – | – |
| NCI-H838 | 0.499 | 0.574 | 0.394 | 0.417 | 1.03 | 1.04 | 0.943 | 0.821 | 0.217 | 0.223 | 0.218 | 0.225 | 0.227 | 0.239 | 0.236 | 0.254 | 0.251 | 0.268 | 0.529 | 1.1 |
| CAL-12T | 0.364 | 0.411 | – | 0.336 | 0.861 | 0.874 | 0.786 | 0.816 | 0.381 | 0.62 | 0.412 | 0.593 | 0.462 | 1.08 | 1.15 | 0.983 | 1.23 | 1.1 | 0.383 | 0.87 |
| NCI-H2342 | – | – | – | – | – | – | – | – | 0.531 | 0.528 | 0.519 | 0.502 | 0.553 | 0.682 | 0.785 | 0.649 | 0.899 | 0.818 | – | – |
| SW 900 | – | – | – | – | – | – | – | – | 0.568 | 0.558 | – | 0.665 | 0.596 | 0.497 | 0.485 | – | 0.514 | 0.498 | – | – |
| IA-LM | 0.471 | 0.381 | 0.39 | 0.412 | 0.704 | 0.689 | 0.559 | 0.696 | – | – | – | – | – | – | – | – | – | – | 0.356 | 0.683 |
| EPLC-272H | 0.192 | 0.262 | 0.356 | 0.279 | 1.3 | 1.05 | 1.06 | 1.17 | 0.32 | 0.362 | 0.298 | 0.31 | 0.336 | 0.376 | 0.317 | 0.357 | 0.404 | 0.363 | 0.323 | 1.03 |
| A-427 | 0.657 | 0.785 | 0.773 | 0.744 | 1.12 | 1.1 | 1.1 | 1.13 | 0.542 | 0.522 | 0.552 | 0.566 | 0.51 | 1.01 | 0.996 | 0.806 | 1.02 | 0.796 | 0.638 | 1.08 |
| NCI-H727 | 0.228 | 0.493 | 0.357 | 0.36 | 0.323 | 0.231 | 0.22 | 0.309 | 0.596 | 0.607 | – | 0.599 | 0.668 | – | – | – | – | – | 0.302 | 0.282 |
| NCI-H1993 | 0.842 | 0.804 | 0.811 | 0.878 | 0.776 | 0.722 | 0.69 | 0.718 | 0.653 | 0.603 | – | 0.617 | 0.615 | 0.578 | 0.624 | – | 0.642 | 0.636 | 0.987 | 0.712 |

Source: the supplement of paper PMC10307832
